Results reported in publication PMC11975549, “Development of Potent Type V MAPK Inhibitors: Design, Synthesis, and Biological Evaluation of Benzothiazole Derivatives Targeting p38α MAPK in Breast Cancer Cells” (Archiv Der Pharmazie, 2025).
Values joined by “and” are separate entries in the source; they are usually repeats but may differ in a detail not shown here. Equal values may be shown once. Read-outs that look alike come from different tables or passages of the source.

Tests used:
p38α MAPK [1] = settings: cited from earlier work
prostate cancer cells = test system: prostate cancer cells; design: method as in PMID 31838901; settings: cited from earlier work
normal prostate cells = test system: normal prostate cells; design: method as in PMID 31838901; settings: cited from earlier work
p38α MAPK [2] = test system: p38α MAPK; design: method as in PMID 34328852; settings: HeLa cells, compared with the control anisomycin (30 μM); cited from earlier work
HeLa cells = test system: HeLa cells; design: method as in PMID 34328852; settings: cited from earlier work
MCF7 cell line = test system: MCF7 cell line; design: method as in PMID 30792101; settings: MTT assay; cited from earlier work
MDA‐MB‐231 cell line = test system: MDA‐MB‐231 cell line; design: method as in PMID 30792101; settings: MTT assay; cited from earlier work
p38α MAPK [3] = test system: p38α MAPK; design: method as in PMID 34894967; settings: MCF‐7 cells; cited from earlier work
MCF7 cells = assay: MTT antiproliferative assay, MCF7; assay type: cell-based, human; settings: for IC50: MTT, 24 h incubation; for Selectivity MCF7: Selectivity index = L929 IC50 / MCF7 IC50 (24 h)
Description: (§1) Cell culture experiments were performed to assess the antiproliferative efficacy of the synthesized benzothiazole compounds on the MCF7 and MDA‐MB‐231 cell lines. The anticancer activity of the compounds were compared with the L929 healthy cell line as a control. Doxorubicin and cisplatin, the anticancer agents, were employed as positive controls.
(§2) Human epithelial breast adenocarcinoma (MDA‐MB‐231) (ATCC® HTB‐26™), human epithelial breast adenocarcinoma (MCF7) (ATCC® HTB‐22™), and healthy mouse fibroblast (L929) (ATCC® CRL‐10317™) cells were obtained commercially from ATCC.
(§3) MDA‐MB‐231, MCF7, and L929 cells were seeded in 25 cm² flasks. DMEM medium containing 10% FBS, 1% Penicillin‐Streptomycin, L‐Glutamine, and NaHCO₃ was used as the cell culture medium. The cells were incubated and propagated at 37°C in an environment containing 5% CO₂ and 95% humidity. When the cells reached 80%–90% confluency, they were passaged to different media. During passaging, DMEM was first withdrawn, and the cells were washed with PBS to remove FBS from the medium. Then, Trypsin‐EDTA solution was added to the flask to detach the cells, and the flask was kept in a CO₂ incubator for approximately 1 min. To stop the activity of Trypsin‐EDTA medium containing FBS was added to the flask. The cells were collected into a Falcon tube and centrifuged at 800 rpm for 5 min at room temperature. The supernatant was discarded, and the cell pellet was resuspended in the medium and seeded on cell culture plates according to the experimental protocol.
(§4) A total of 2 mg of each compound was dissolved in an appropriate amount of dimethyl sulfoxide (DMSO) to prepare 10 mM stock solutions. These stock solutions were then diluted to create 100 μM intermediate stocks and stored at −80°C. Commercially purchased cisplatin and doxorubicin HCl (Sigma, St. Louis, MO) were dissolved in DMSO following the manufacturer's protocol to create 20 mM stock solutions. These standard drug molecules were diluted from the stock solution, divided into 100 μM aliquots, and stored at –80°C until use.
(§5) MTT analysis was performed to evaluate the in vitro cytotoxicity of the synthesized compounds against different cancer cell lines. Cells used in the cytotoxicity experiments were cultured in DMEM medium supplemented with 10% FBS. Cells suspended in the medium (2 × 10⁴ cells/mL) were seeded into 96‐well culture plates and incubated at 37°C in a 5% CO₂ incubator. After 12 h, compounds were added at different doses (2 µL) to cells (2 × 10⁴) in the 96‐well plates and incubated at 37°C for 24 h.
(§6) The incubated cells were then treated with 20 µL of MTT solution and incubated at 37°C for 4 h. The supernatant was carefully removed from each well, and 100 µL of DMSO was added to each well to dissolve the formazan crystals formed by the cellular reduction of MTT. The absorbance was measured at 570 nm using an ELISA reader. […] At the end of the experiment, the device calculated the IC50 value for each well, and the average values were recorded. Each experiment was performed in at least three replicates.

p38 MAPKα = assay: p38 MAPK alpha ELISA, total level in treated MCF7 cells normalised to total protein (BCA); assay type: cell-based, human; settings: MCF7 cells exposed to compound
From the text: To account for variations in protein quantities among the cells. The total protein concentrations in cells subjected to the drugs were quantified. The p38 MAPKα levels were adjusted by dividing by the protein levels, yielding results represented as ng/μg protein (Table 3).
A bicinchoninic acid (BCA) protein assay kit (catalog no. 23227) was obtained from Thermo‐Fisher Scientific (IL, USA) and used to detect total protein by the BCA assay. In this assay, the reaction between BCA, Cu²⁺ ions, and Cu⁺ ions form a purple complex in alkaline conditions. The absorbance of this complex was measured at 562 nm, and the results were expressed in mg/mL.
The p38 MAPK alpha ELISA Kit (ab221012; Abcam, Cambridge, MA) was used to measure the levels of […] in cell lysates according to the manufacturer's instructions. The SimpleStep Enzyme‐Linked Immunosorbent Assay (ELISA) kit was designed to assess total p38 MAPKα protein semi‐quantitatively. The SimpleStep ELISA uses a reporter‐conjugated detection antibody, and an affinity‐tag labeled capture antibody to immunocapture the sample analyte in solution. An anti‐tag antibody coating the well immobilizes the entire complex (capture antibody, analyte, and detection antibody).
Samples or controls were added to the wells, followed by the Antibody Cocktail to complete the test. After incubation, the wells were washed to remove unbound material. […] The levels of MAPK were normalized to total protein content.

L929 cells = assay: MTT cytotoxicity assay, L929 healthy cells; assay type: cell-based; settings: healthy mouse fibroblast
Description: as §1, §2, §3, §4, §5, §6

MDA‐MB‐231 cells = assay: MTT antiproliferative assay, MDA-MB-231; assay type: cell-based, human; settings: for IC50: MTT, 24 h incubation; for Selectivity MDA‐MB‐231: Selectivity index = L929 IC50 / MDA‐MB‐231 IC50 (24 h)
Description: as §1, §2, §3, §4, §5, §6

Structure (SMILES): COc1cccc(-c2nn(-c3ccccc3)cc2-c2ccncc2)c1 [Compound 4d]
- IC50 (p38α MAPK [1]; relative selectivity in comparison to 15 other kinases, read-out: IC50 p38α): 0.515 µM

Structure (SMILES): COc1cccc(CNC(=O)c2ccc(N3CCOCC3)c(NC(=O)Nc3ccc(F)cc3F)c2)c1 [Compound 5e]
- viability, proliferation and migration of prostate cancer cells (prostate cancer cells): inhibited the viability and reduced the proliferation and migration
- damage to normal prostate cells (normal prostate cells): without causing considerable damage

Structure (SMILES): COc1c(-c2cc(-c3ccc(C)o3)c(C#N)c(N)n2)c(O)c(Br)c2occc12 [Compound 6f]
- IC50 (p38α MAPK [1]; read-out: IC50 p38α MAP kinase): 0.04 µM

Structure (SMILES): O=c1oc2ccccc2c(O)c1C1=CC(c2ccc(F)cc2)NC(=S)N1 (centres unmarked) [Compound 7g]
- suppression of p38α MAPK activation (p38α MAPK [2]): 0.64
- reduction in cell viability (HeLa cells; 10 μM): 80%
- reduction in cell viability (HeLa cells; 30 μM): 72%

Structure (SMILES): COc1c(-c2cc(-c3ccc(F)cc3)c(C#N)c(=N)[nH]2)c(O)c(Br)c2occc12 [Compound 8h]
- IC50 (p38α MAPK [1]; read-out: IC50 p38α MAPK): 0.27 µM

Structure (SMILES): COc1c(C(=O)/C=C/c2ccc(C)o2)c(O)c(Br)c2occc12 [Compound 9i]
- IC50 (p38α MAPK [1]; read-out: IC50 p38α MAP kinase): 0.04 µM
- IC50 (MCF7 cell line): 1.35 µM
- IC50 (MDA‐MB‐231 cell line): 2.09 µM

Structure (SMILES): Cc1ccc(C(=O)/C=C/c2ccc(Oc3ccc(Br)cc3)cc2)cc1 [Compound 10j]
- total p38α MAPK and phosphorylated enzyme levels (p38α MAPK [3]): reduced

Structure (SMILES): CCNC(=O)c1ccc(C)c(NC(=O)c2ccc3c(-c4ccc(Cl)cc4)n[nH]c3c2)c1 [Compound 11k, 3‐(4‐chlorophenyl)‐N‐(5‐(ethylcarbamoyl)‐2‐methylphenyl)‐1H‐indazole‐6‐carboxamide]
- IC50 (p38α MAPK [1]; read-out: IC50 p38α MAPK): 3.37 ± 0.24 µM

Structure (SMILES): Clc1cccc(Cl)c1Nc1ccccc1Cc1nncn1Nc1nc2ccccc2s1 [Compound 12l]
- IC50 (p38α MAPK [1]; read-out: IC50 p38α MAPK): 0.036 µM

Structure (SMILES): O=C(CSc1nnc(COc2ccccc2)n1-c1ccc(F)cc1)Nc1nc2ccccc2s1 [Compound 13m]
- IC50 (p38α MAPK [1]; read-out: IC50 p38α MAPK): 0.031 µM

Structure (SMILES): O=C(NCc1nc2ccccc2s1)c1ccco1 [Compound 15, N‐(Benzo[d]thiazol‐2‐ylmethyl) furan‐2‐carboxamide]
- IC50 (MCF7 cells; Homo sapiens, MCF7): 8.83 ± 0.43 µM
- Selectivity MCF7 (MCF7 cells): 3.031
- Total p38α MAPK levels (p38 MAPKα): 0.155 ng/μg protein and 0.155 ± 0.045 ng/μg protein
- IC50 (L929 cells; L929, 24 h incubation): 26.8 ± 0.84 µM
- IC50 (MDA‐MB‐231 cells; Homo sapiens, MDA-MB-231): 11.78 ± 0.11 µM
- Selectivity MDA‐MB‐231 (MDA‐MB‐231 cells): 2.272

Structure (SMILES): COc1ccc(C(=O)NCc2nc3ccccc3s2)cc1 [Compound 17, N‐(Benzo[d]thiazol‐2‐ylmethyl)‐4‐methoxybenzamide]
- IC50 (MCF7 cells; Homo sapiens, MCF7): 11.1 ± 0.23 µM
- Selectivity MCF7 (MCF7 cells): 2.271
- Total p38α MAPK levels (p38 MAPKα): 6.411 ± 1.604 ng/μg protein
- IC50 (L929 cells; L929, 24 h incubation): 25.09 ± 0.18 µM
- IC50 (MDA‐MB‐231 cells; Homo sapiens, MDA-MB-231): 16.7 ± 0.36 µM
- Selectivity MDA‐MB‐231 (MDA‐MB‐231 cells): 1.499

Structure (SMILES): Cc1ccc(C(=O)NCc2nc3ccccc3s2)cc1 [Compound 18, N‐(Benzo[d]thiazol‐2‐ylmethyl)‐4‐methylbenzamide]
- IC50 (MCF7 cells; Homo sapiens, MCF7): 11.2 ± 0.75 µM
- Selectivity MCF7 (MCF7 cells): 2.604
- Total p38α MAPK levels (p38 MAPKα): 1.34 ± 0.154 ng/μg protein
- IC50 (L929 cells; L929, 24 h incubation): 29.1 ± 0.52 µM
- IC50 (MDA‐MB‐231 cells; Homo sapiens, MDA-MB-231): 20.2 ± 0.73 µM
- Selectivity MDA‐MB‐231 (MDA‐MB‐231 cells): 1.442

Structure (SMILES): O=C(Cc1ccccc1)Nc1nc2ccccc2s1 [Compound 19, N‐(Benzo[d]thiazol‐2‐yl)‐2‐phenylacetamide]
- IC50 (MCF7 cells; Homo sapiens, MCF7): 6.19 ± 1.05 µM
- Selectivity MCF7 (MCF7 cells): 15.171
- Total p38α MAPK levels (p38 MAPKα): 0.112 ng/μg protein and 0.112 ± 0.001 ng/μg protein
- IC50 (L929 cells; L929, 24 h incubation): 93.9 ± 1.9 µM
- IC50 (MDA‐MB‐231 cells; Homo sapiens, MDA-MB-231): 10.74 ± 0.03 µM
- Selectivity MDA‐MB‐231 (MDA‐MB‐231 cells): 8.744

Structure (SMILES): COc1cccc(CC(=O)Nc2nc3ccccc3s2)c1 [Compound 21, N‐(Benzo[d]thiazol‐2‐yl)‐2‐(3‐methoxyphenyl) acetamide]
- IC50 (MCF7 cells): 7.09 ± 0.02 µM
- Selectivity MCF7 (MCF7 cells): 9.354
- Total p38α MAPK levels (p38 MAPKα): 1.333 ± 0.007 ng/μg protein
- IC50 (L929 cells; 24 h incubation): 66.3 ± 1.82 µM
- IC50 (MDA‐MB‐231 cells): 6.42 ± 0.07 µM
- Selectivity MDA‐MB‐231 (MDA‐MB‐231 cells): 10.330

Structure (SMILES): O=C(Cc1ccc(F)cc1)Nc1nc2ccccc2s1 [Compound 22, N‐(Benzo[d]thiazol‐2‐yl)‐2‐(4‐fluorophenyl) acetamide]
- IC50 (MCF7 cells): 5.05 ± 0.01 µM
- Selectivity MCF7 (MCF7 cells): 41.697
- Total p38α MAPK levels (p38 MAPKα): 3.952 ± 0.311 ng/μg protein
- IC50 (L929 cells; 24 h incubation): 210.6 ± 1.67 µM
- IC50 (MDA‐MB‐231 cells): 3.8 ± 0.28 µM
- Selectivity MDA‐MB‐231 (MDA‐MB‐231 cells): 55.413

Structure (SMILES): O=C(Cc1ccc(Cl)cc1)Nc1nc2ccccc2s1 [Compound 23, N‐(Benzo[d]thiazol‐2‐yl)‐2‐(4‐chlorophenyl) acetamide]
- IC50 (MCF7 cells): 8.24 ± 0.19 µM
- Selectivity MCF7 (MCF7 cells): 6.550
- Total p38α MAPK levels (p38 MAPKα): 2.331 ± 1.241 ng/μg protein
- IC50 (L929 cells; 24 h incubation): 54 ± 1.08 µM
- IC50 (MDA‐MB‐231 cells): 7.04 ± 0.18 µM
- Selectivity MDA‐MB‐231 (MDA‐MB‐231 cells): 7.666

Structure (SMILES): O=C(Cc1cccs1)NCc1nc2ccccc2s1 [Compound 28, N‐(Benzo[d]thiazol‐2‐ylmethyl)‐2‐(thiophen‐2‐yl) acetamide]
- IC50 (MCF7 cells): 11.1 ± 0.37 µM
- Selectivity MCF7 (MCF7 cells): 2.794
- Total p38α MAPK levels (p38 MAPKα): 2.542 ± 0.228 ng/μg protein
- IC50 (L929 cells; 24 h incubation): 31 ± 0.33 µM
- IC50 (MDA‐MB‐231 cells): 18.8 ± 0.23 µM
- Selectivity MDA‐MB‐231 (MDA‐MB‐231 cells): 1.655

Structure (SMILES): CS(=O)(=O)CCNCc1ccc(-c2ccc3ncnc(Nc4ccc(OCc5cccc(F)c5)c(Cl)c4)c3c2)o1 [lapatinib]
- IC50 (MCF7 cell line): 4.69 µM
- IC50 (MDA‐MB‐231 cell line): 4.69 µM
